Assay results reported in patent publication US20140155415A1, “BENZ[…] BENZODIOXINE COMPOUNDS THAT INTERACT WITH G[…] FOR THE TREATMENT OF DIABETES” (priority 2011, published 2014).

Legend:
[1] = molecular target: T1, GK-GKRP (interaction between glucokinase and glucokinase regulatory protein) (Homo sapiens, UniProt Q14397); assay: GK-GKRP Binding Assay (Binding), AlphaScreen; settings: avi-tagged GKRP, GK-fluorescein, AlphaScreen beads, 1 μM sorbitol-6-phosphate; read-out: GK-GKRP IC50 (Binding)
T1 construct: made in house; host or cells: GKRP: baculovirus system
T1 sequence (Q14397 1-625): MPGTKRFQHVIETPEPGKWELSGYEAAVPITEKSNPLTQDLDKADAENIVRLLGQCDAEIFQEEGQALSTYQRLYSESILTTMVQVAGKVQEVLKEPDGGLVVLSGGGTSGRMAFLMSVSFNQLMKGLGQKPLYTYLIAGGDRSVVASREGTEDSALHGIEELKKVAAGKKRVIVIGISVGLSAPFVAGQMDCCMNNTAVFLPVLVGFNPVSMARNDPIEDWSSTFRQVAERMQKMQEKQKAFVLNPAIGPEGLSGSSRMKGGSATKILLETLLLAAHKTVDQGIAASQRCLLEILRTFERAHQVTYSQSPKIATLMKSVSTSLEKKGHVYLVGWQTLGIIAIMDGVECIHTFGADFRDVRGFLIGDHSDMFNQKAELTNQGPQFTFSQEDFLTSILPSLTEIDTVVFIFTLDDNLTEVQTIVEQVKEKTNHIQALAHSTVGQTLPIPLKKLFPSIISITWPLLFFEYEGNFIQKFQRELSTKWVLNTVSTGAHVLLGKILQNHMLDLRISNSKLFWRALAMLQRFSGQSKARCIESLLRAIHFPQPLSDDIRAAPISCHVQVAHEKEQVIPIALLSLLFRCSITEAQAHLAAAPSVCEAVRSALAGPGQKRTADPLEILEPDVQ
How it was run: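 Biotinylated, C-terminally avi-tagged human GKRP was preincubated 20 min at room temperature with compound, then fluorescein-labelled human hepatic GK was added (6 nM in the added buffer). The mix was incubated 2 h at room temperature in the dark before AlphaScreen reading. Buffer was 20 mM Tris pH 7.5, 0.05% BSA, 1 mM DTT, 1 μM sorbitol-6-phosphate.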

[2] = molecular target: T2, GK-GKRP (glucokinase / glucokinase regulatory protein) (Homo sapiens, UniProt Q14397); assay: GKRP LC MS/MS Biochemical Assay (LCMS/MS); settings: formation of 13C-glucose-6-phosphate from 13C-glucose by LC MS/MS, human His-hepatic GK, fructose-6-phosphate
T2 sequence (Q14397 1-625): T1 sequence (Q14397 1-625)
How it was run: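 Human His-tagged hepatic GK (30 nM working stock, 5×) with GKRP in 50 mM Tris pH 7.5, 4 mM MgCl2, 6% DMSO; compound preincubated 30 min, then GK added for 30 min at room temperature. Acetonitrile-stopped; 13C-glucose-6-phosphate formed from 13C-glucose quantified by LC MS/MS.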

Row | Structure (SMILES) | IC50 [1] | EC50 [2]
1 | O=S(=O)(NC(c1ccccc1)c1cc2cccc(-c3ccccn3)c2s1)c1ccc2c(c1)OCCCO2 (racemic) [Example 71, N-(phenyl(7-(2-pyridinyl)-1-benzothiophen-2-yl)methyl)-3,4-dihydro-2H-1,5-benzodioxepine-7-sulfonamide] | 540 nM | 290 nM
2 | COc1ccccc1C(NS(=O)(=O)c1ccc2c(c1)OCCCO2)c1cc2ccccc2o1 (racemic) [Example 17, N-(1-benzofuran-2-yl(2-methoxyphenyl)methyl)-3,4-dihydro-2H-1,5-benzodioxepine-7-sulfonamide] | 170 nM | 95 nM
3 | CCCc1ccccc1C(NS(=O)(=O)c1ccc2c(c1)OCCCO2)c1cc2ccccc2o1 (racemic) [Example 11, N-(1-benzofuran-2-yl(2-propylphenyl)methyl)-3,4-dihydro-2H-1,5-benzodioxepine-7-sulfonamide] | 1800 nM | 1700 nM
4 | O=S(=O)(NC(c1ccccc1)c1cc2cccc(Cl)c2s1)c1ccc2c(c1)OCCCO2 (racemic) [Example 72, N-((7-chloro-1-benzothiophen-2-yl)(phenyl)methyl)-3,4-dihydro-2H-1,5-benzodioxepine-7-sulfonamide] | 1000 nM | 480 nM
5 | Cc1cccnc1C(NS(=O)(=O)c1ccc2c(c1)OCCCO2)c1cc2ccccc2o1 (racemic) [Example 26, N-(1-benzofuran-2-yl(3-methyl-2-pyridinyl)methyl)-3,4-dihydro-2H-1,5-benzodioxepine-7-sulfonamide] | 420 nM | 190 nM
6 | COc1ccccc1C(NS(=O)(=O)c1ccc2c(c1)OCCCO2)c1cc2ccncc2s1 (racemic) [Example 66, N-((2-methoxyphenyl)(thieno[2,3-c]pyridin-2-yl)methyl)-3,4-dihydro-2H-1,5-benzodioxepine-7-sulfonamide] | 72 nM | 82 nM
7 | CCc1ccccc1C(NS(=O)(=O)c1ccc2c(c1)OCCCO2)c1cc2ccccc2o1 (racemic) [Example 6, N-(1-benzofuran-2-yl(2-ethylphenyl)methyl)-3,4-dihydro-2H-1,5-benzodioxepine-7-sulfonamide] | 220 nM | 67 nM
8 | O=S(=O)(NC(c1cc2ccccc2o1)c1ccccc1C(F)(F)F)c1ccc2c(c1)OCCCO2 (racemic) [Example 12, N-(1-benzofuran-2-yl(2-(trifluoromethyl)phenyl)methyl)-3,4-dihydro-2H-1,5-benzodioxepine-7-sulfonamide] | 1000 nM | 320 nM
9 | O=S(=O)(N[C@@H](c1ccccn1)c1cc2ccccc2o1)c1ccc2c(c1)OCCCO2 (single isomer, unassigned) [Example 25 Peak #1] | 3800 nM | 6000 nM
10 | C[C@](O)(c1ccnc(-c2cccc3cc([C@@H](NS(=O)(=O)c4ccc5c(c4)OCCCO5)c4ccccc4)sc23)c1)C(F)(F)F (single isomer, unassigned) [Example 70 Peak #4] | 110 nM | 74 nM
